Results from article PMC8895129, “Pseudomonas aeruginosa Biofilm Dispersion by the Human Atrial Natriuretic Peptide” (Advanced Science, 2022).
Where two headings read alike, the source gives them in different places.

What was measured:
[1] = system: human Ether-a-go-go Related Gene (hERG) channel
AmiC [2] = biological target: T1, AmiC (Pseudomonas aeruginosa, UniProt P27017); experiment: biochemical
Experimental: Briefly, AmiC protein was labeled using the RED‐NHS labeling kit (NanoTemper Technologies). The labeling reaction was performed according to the manufacturer's instructions in the supplied labeling buffer using a 20 × 10^−6 M protein concentration and a molar dye:protein ratio ≈2:1, at RT for 30 min. […] The label:protein ratio was determined using photometry at 650 and 280 nm. Typically, a ratio of 0.8 was achieved.
For thermophoresis, each ligand dilution was mixed with one volume of AmiC, which led to a final concentration of AmiC of 50 × 10^−9 M and final ligand concentrations at half of the ranges above. Instrument parameters were adjusted with 50% light‐emitting diode power and 20% MST power. Data of three independently pipetted measurements were analyzed (NT.Analysis software version 1.5.41, NanoTemper Technologies) using the signal from Thermophoresis + T‐Jump.

[3] = system: P. aeruginosa PA14 established biofilm; experiment: Dispersion of 24 h established biofilm in flow cell, CLSM/COMSTAT; assay type: cell-based, Pseudomonas aeruginosa; conditions: mean ± SEM; for biofilm biovolumes reduction: 37 °C
Experimental: For biofilm dispersion experiments, overnight cultures of P. aeruginosa strains were performed in LB medium at 37 °C for 18 h with shaking (180 rpm). Bacterial cells were then washed and adjusted to OD580 = 0.1 in 0.9% w/v NaCl. The bacterial suspensions were then used to form a biofilm for 24 h under hydrodynamic conditions at 37 °C. Briefly, each channel of the flow cell was inoculated with 300 µL of bacterial suspension. A 2 h attachment step was performed without flow. After 2 h, each channel was then pumped with a 2.5 mL h^–1 flow rate of LB medium during 24 h. Next, the 24 h old biofilm of P. aeruginosa was exposed for 2 h (or 30 min) to 300 µL of studied compounds (i.e., peptides, antibiotics, or a combination of peptide + antibiotics) or 300 µL of ultra‐pure distilled water (control condition), added to each channel of the flow cell and without flow. Prior to image acquisition, biofilm cultures were then rinsed with LB medium using 2.5 mL h^–1 flow rate for 15 min. Finally, biofilm cells were stained and then observed by CLSM.
The CLSM observations of biofilms were performed using a Zeiss LSM710 microscope (Carl Zeiss Microscopy, Oberkochen, Germany) using a x40 oil immersion objective. Bacteria into the biofilm were stained with 5 × 10^−6 M of SYTO9 green‐fluorescent dye (Invitrogen, Carlsbad, CA). Biofilm matrix components were stained using fluorescent dyes. To assess the eDNA relative abundance, 1 × 10^−6 M of DDAO (Invitrogen, Carlsbad, CA) was used. The polysaccharides β1‐3 and β1‐4 were labeled with CalcoFluor White M2R at 200 µg mL^−1 (Sigma‐Aldrich, USA). eDNA and polysaccharides values were normalized to biofilms’ biomass. The Live/Dead BacLight kit (Invitrogen, Carlsbad, CA) was used to examine bacterial viability in biofilms according to manufacturer instructions. Images were taken every micrometer throughout the whole biofilm depth. For visualization and processing of 3D image, the Zen 2.1 SP1 software (Carl Zeiss Microscopy, Oberkochen, Germany) was used. Quantitative analyses of images stacks were performed using the COMSTAT software (http://www.imageanalysis.dk/).^[ [77] ^] At least three image stacks from at least three independent experiments were used for each analysis.

AmiC [4] = biological target: T1, AmiC; parameters: made in house; conditions: cited from earlier work
Text: […]; see 2.0 ± 0.3 × 10^−6 M for hCNP^[ [44] ^]). This is consistent with the van der Waals and hydrog ...

T1 sequence (P27017 whole entry): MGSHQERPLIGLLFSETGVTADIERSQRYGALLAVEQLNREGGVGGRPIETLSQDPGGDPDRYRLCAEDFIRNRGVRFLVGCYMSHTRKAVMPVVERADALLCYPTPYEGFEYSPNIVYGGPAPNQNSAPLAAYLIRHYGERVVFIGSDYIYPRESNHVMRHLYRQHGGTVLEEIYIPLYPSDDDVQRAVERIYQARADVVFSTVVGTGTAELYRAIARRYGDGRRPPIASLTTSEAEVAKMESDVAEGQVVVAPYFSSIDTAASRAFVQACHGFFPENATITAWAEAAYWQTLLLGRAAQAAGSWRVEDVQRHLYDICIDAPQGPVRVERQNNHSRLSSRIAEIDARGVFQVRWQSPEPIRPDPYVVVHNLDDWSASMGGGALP

CC[C@H](C)[C@@H]1NC(=O)[C@H](CCCNC(=N)N)NC(=O)[C@H](CC(=O)O)NC(=O)[C@H](CCSC)NC(=O)[C@H](CCCNC(=N)N)NC(=O)CNC(=O)CNC(=O)[C@H](Cc2ccccc2)NC(=O)[C@@H](NC(=O)[C@H](CO)NC(=O)[C@H](CO)NC(=O)[C@H](CCCNC(=N)N)NC(=O)[C@H](CCCNC(=N)N)NC(=O)[C@H](CC(C)C)NC(=O)[C@@H](N)CO)CSSC[C@@H](C(=O)N[C@@H](CC(N)=O)C(=O)N[C@@H](CO)C(=O)N[C@@H](Cc2ccccc2)C(=O)N[C@@H](CCCNC(=N)N)C(=O)N[C@@H](Cc2ccc(O)cc2)C(=O)O)NC(=O)CNC(=O)[C@H](CC(C)C)NC(=O)CNC(=O)[C@H](CO)NC(=O)[C@H](CCC(N)=O)NC(=O)[C@H](C)NC(=O)CNC1=O [hANP, human Atrial Natriuretic Peptide]
hERG cardiac channel conductance [1]: did not modify
Kd (AmiC [2]): 5 ± 3 µM

C[C@@H](O)[C@H]1C(=O)N2C(C(=O)O)=C(SCCN=CN)C[C@H]12 [imipenem]
biofilm reduction ([3]; imipenem 0.5 µg mL^−1, 2 h, n = 5): 69.8 ± 3.0%

NC[C@H]1O[C@H](O[C@H]2[C@H](O)[C@@H](O[C@H]3O[C@H](CO)[C@@H](O)[C@H](N)[C@H]3O)[C@H](N)C[C@@H]2N)[C@H](N)C[C@@H]1O [tobramycin]
biofilm biovolumes reduction ([3]; tobramycin 10 µg mL^−1, 2 h, n = 3): 79.0 ± 4.0%
biofilm biovolumes reduction ([3]; tobramycin 50 µg mL^−1, 2 h, n = 4): 76.6 ± 4.0%

Brain Natriuretic Peptide [hBNP]
affinity for AmiC (AmiC [4]): no affinity

C‐type Natriuretic Peptide [hCNP]
Kd (AmiC [4]; microscale thermophoresis, read-out: K D, binding to AmiC): 2 ± 0.3 µM

polymyxin B
biovolume reduction ([3]; polymyxin B 4 µg mL^−1, 2 h, n = 5): 70.0 ± 4.3%
